Laboratory results reported in ChEMBL document CHEMBL1201861, “Genomics of Drug Sensitity in Cancer screening data, Wellcome Trust Sanger Institute”.

Legend:
MC-CAR = test: cells; format: functional, cell-based, Homo sapiens; details: Homo sapiens, MC-CAR;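 note: growth inhibition of the human MC-CAR cell line, read out by a cell viability assay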
Description: SANGER: Inhibition of human MC-CAR cell growth in a cell viability assay.

NCI-H345 = test: cells; format: functional, cell-based, Homo sapiens; details: Homo sapiens, NCI-H345;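 note: growth inhibition of NCI-H345 cells measured with a cell viability assay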
Description: SANGER: Inhibition of human NCI-H345 cell growth in a cell viability assay.

DBTRG-05MG = test: cells; format: functional, cell-based; details: Homo sapiens;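 note: cell viability assay measuring growth inhibition of human DBTRG-05MG cells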
Description: SANGER: Inhibition of human DBTRG-05MG cell growth in a cell viability assay.

ST486 = test: SANGER: Inhibition of human ST486 cell growth in a cell viability assay.; format: functional, cell-based; details: Homo sapiens, ST486
COLO-678 = test: cells; format: functional, cell-based; details: Homo sapiens
Description: SANGER: Inhibition of human COLO-678 cell growth in a cell viability assay.

TE-441-T = test: cells; format: functional, cell-based, Homo sapiens; details: Homo sapiens, TE-441-T
Description: SANGER: Inhibition of human TE-441-T cell growth in a cell viability assay.

SAS = test: cells; format: functional, cell-based; details: Homo sapiens;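 note: growth inhibition of SAS cells, read out with a cell viability assay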
Description: SANGER: Inhibition of human SAS cell growth in a cell viability assay.

AN3-CA = test: cells; format: functional, cell-based; details: Homo sapiens;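 note: growth inhibition of human AN3-CA cells measured by a cell viability assay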
Description: SANGER: Inhibition of human AN3-CA cell growth in a cell viability assay.

SKG-IIIa = test: cells; format: functional, cell-based; details: Homo sapiens;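 note: cell growth inhibition, read out with a cell viability assay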
Description: SANGER: Inhibition of human SKG-IIIa cell growth in a cell viability assay.

MDA-MB-361 = test: cells; format: functional, cell-based; details: Homo sapiens
NCI-H1522 = test: cells; format: functional, cell-based, Homo sapiens; details: Homo sapiens, NCI-H1522;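 note: growth inhibition of NCI-H1522 cells, read out with a cell viability assay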
Description: SANGER: Inhibition of human NCI-H1522 cell growth in a cell viability assay.

KYSE-180 = test: cells; format: functional, cell-based; details: Homo sapiens;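 note: growth inhibition of KYSE-180 cells, read out with a cell viability assay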
Description: SANGER: Inhibition of human KYSE-180 cell growth in a cell viability assay.

KYSE-410 = test: cells; format: functional, cell-based; details: Homo sapiens;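 note: growth inhibition of KYSE-410 cells, measured through a cell viability readout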
Description: SANGER: Inhibition of human KYSE-410 cell growth in a cell viability assay.

COR-L105 = test: cells; format: functional, cell-based; details: Homo sapiens
Description: SANGER: Inhibition of human COR-L105 cell growth in a cell viability assay.

SJRH30 = test: cells; format: functional, cell-based; details: Homo sapiens;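 note: growth inhibition of human SJRH30 cells, read out with a cell viability assay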
Description: SANGER: Inhibition of human SJRH30 cell growth in a cell viability assay.

U-118-MG = test: cells; format: functional, cell-based; details: Homo sapiens
Description: SANGER: Inhibition of human U-118-MG cell growth in a cell viability assay.

NUGC-3 = test: cells; format: functional, cell-based; details: Homo sapiens;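 note: growth inhibition of human NUGC-3 cells, read out with a cell viability assay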
Description: SANGER: Inhibition of human NUGC-3 cell growth in a cell viability assay.

COLO-680N = test: cells; format: functional, cell-based; details: Homo sapiens;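 note: cell viability assay used to measure inhibition of COLO-680N cell growth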
Description: SANGER: Inhibition of human COLO-680N cell growth in a cell viability assay.

TALL-1 = test: cells; format: functional, cell-based, Homo sapiens; details: Homo sapiens, TALL-1;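 note: growth inhibition of cultured human TALL-1 cells, read out by a cell viability assay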
Description: SANGER: Inhibition of human TALL-1 cell growth in a cell viability assay.

SN12C = test: cells; format: functional, cell-based; details: Homo sapiens;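 note: growth inhibition of human SN12C cells, measured by a cell viability assay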
Description: SANGER: Inhibition of human SN12C cell growth in a cell viability assay.

COLO-679 = test: cells; format: functional, cell-based; details: Homo sapiens
Description: SANGER: Inhibition of human COLO-679 cell growth in a cell viability assay.

KMS-12-PE = test: cells; format: functional, cell-based, Homo sapiens; details: Homo sapiens, KMS-12-PE;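 note: growth inhibition of human KMS-12-PE cells, measured with a cell viability assay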
Description: SANGER: Inhibition of human KMS-12-PE cell growth in a cell viability assay.

NCI-H2171 = test: cells; format: functional, cell-based, Homo sapiens; details: Homo sapiens, NCI-H2171;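 note: growth inhibition of human NCI-H2171 cells, read out by a cell viability assay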
Description: SANGER: Inhibition of human NCI-H2171 cell growth in a cell viability assay.

RPMI-7951 = test: cells; format: functional, cell-based; details: Homo sapiens
Description: SANGER: Inhibition of human RPMI-7951 cell growth in a cell viability assay.

RPMI 8402 = test: SANGER: Inhibition of human RPMI-8402 cell growth in a cell viability assay.; format: functional, cell-based; details: Homo sapiens, RPMI 8402
TE-15 = test: cells; format: functional, cell-based, Homo sapiens; details: Homo sapiens, TE-15;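 note: cell viability readout of growth inhibition in TE-15 cells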
Description: SANGER: Inhibition of human TE-15 cell growth in a cell viability assay.

NCI-H1563 = test: cells; format: functional, cell-based; details: Homo sapiens;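 note: growth inhibition of human NCI-H1563 cells, read out with a cell viability assay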
Description: SANGER: Inhibition of human NCI-H1563 cell growth in a cell viability assay.

HSC-4 = test: cells; format: functional, cell-based; details: Homo sapiens;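 note: growth inhibition of human HSC-4 cells, read out with a cell viability assay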
Description: SANGER: Inhibition of human HSC-4 cell growth in a cell viability assay.

YAPC = test: cells; format: functional, cell-based; details: Homo sapiens;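 note: growth inhibition of YAPC cells, measured with a cell viability assay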
Description: SANGER: Inhibition of human YAPC cell growth in a cell viability assay.

KYSE-450 = test: cells; format: functional, cell-based; details: Homo sapiens;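 note: cell growth inhibition measured by a viability assay in human KYSE-450 cells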
Description: SANGER: Inhibition of human KYSE-450 cell growth in a cell viability assay.

SK-MM-2 = test: cells; format: functional, cell-based, Homo sapiens; details: Homo sapiens, SK-MM-2;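 note: growth inhibition of human SK-MM-2 cells, read out with a cell viability assay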
Description: SANGER: Inhibition of human SK-MM-2 cell growth in a cell viability assay.

BT-20 = test: cells; format: functional, cell-based; details: Homo sapiens;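 note: cell viability assay measuring suppression of growth in human BT-20 cells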
Description: SANGER: Inhibition of human BT-20 cell growth in a cell viability assay.

KOSC-2 = test: cells; format: functional, cell-based; details: Homo sapiens;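 note: growth inhibition of KOSC-2 cells, read out by a cell viability assay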
Description: SANGER: Inhibition of human KOSC-2 cell growth in a cell viability assay.

SiHa = test: cells; format: functional, cell-based; details: Homo sapiens;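 note: Viability-based readout of growth inhibition in SiHa cells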
Description: SANGER: Inhibition of human SiHa cell growth in a cell viability assay.

HT-1080 = test: cells; format: functional, cell-based; details: Homo sapiens
Description: SANGER: Inhibition of human HT-1080 cell growth in a cell viability assay.

CP50-MEL-B = test: cells; format: functional, cell-based; details: Homo sapiens;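 note: growth inhibition of the human cell line, measured with a cell viability read-out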
Description: SANGER: Inhibition of human CP50-MEL-B cell growth in a cell viability assay.

OE19 = test: cells; format: functional, cell-based; details: Homo sapiens;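 note: growth inhibition of OE19 cells, measured through a cell viability read-out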
Description: SANGER: Inhibition of human OE19 cell growth in a cell viability assay.

Hs-578T = test: cells; format: functional, cell-based; details: Homo sapiens
Description: SANGER: Inhibition of human Hs-578-T cell growth in a cell viability assay.

MDA-MB-175-VII = test: cells; format: functional, cell-based; details: Homo sapiens
NCI-H650 = test: cells; format: functional, cell-based; details: Homo sapiens;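 note: growth inhibition of NCI-H650 cells, read out by a viability assay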
Description: SANGER: Inhibition of human NCI-H650 cell growth in a cell viability assay.

GMS-10 = test: cells; format: functional, cell-based; details: Homo sapiens;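 note: growth inhibition of GMS-10 cells, read out as cell viability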
Description: SANGER: Inhibition of human GMS-10 cell growth in a cell viability assay.

CAL-12T = test: cells; format: functional, cell-based; details: Homo sapiens;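 note: growth inhibition of human CAL-12T cells, read out with a cell viability assay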
Description: SANGER: Inhibition of human CAL-12T cell growth in a cell viability assay.

D-336MG = test: cells; format: functional, cell-based, Homo sapiens; details: Homo sapiens, D-336MG
Description: SANGER: Inhibition of human D-336MG cell growth in a cell viability assay.

BL-70 = test: SANGER: Inhibition of human BL-70 cell growth in a cell viability assay.; format: functional, cell-based; details: Homo sapiens, BL-70
SW756 = test: cells; format: functional, cell-based; details: Homo sapiens;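 note: growth inhibition of human SW756 cells, read out with a cell viability assay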
Description: SANGER: Inhibition of human SW756 cell growth in a cell viability assay.

HCC1419 = test: cells; format: functional, cell-based; details: Homo sapiens;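 note: growth inhibition of human HCC1419 cells, read out as cell viability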
Description: SANGER: Inhibition of human HCC1419 cell growth in a cell viability assay.

NCI-H2009 = test: cells; format: functional, cell-based; details: Homo sapiens;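 note: cell viability assay measuring inhibition of NCI-H2009 cell growth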
Description: SANGER: Inhibition of human NCI-H2009 cell growth in a cell viability assay.

A 172 = test: cells; format: functional, cell-based; details: Homo sapiens;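 note: growth inhibition of A172 cells, measured with a cell viability readout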
Description: SANGER: Inhibition of human A172 cell growth in a cell viability assay.

8505C = test: cells; format: functional, cell-based; details: Homo sapiens
Description: SANGER: Inhibition of human 8505C cell growth in a cell viability assay.

ESS-1 = test: cells; format: functional, cell-based; details: Homo sapiens;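 note: growth inhibition of human ESS-1 cells, read out by a cell viability assay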
Description: SANGER: Inhibition of human ESS-1 cell growth in a cell viability assay.

PANC-03-27 = test: cells; format: functional, cell-based; details: Homo sapiens
Description: SANGER: Inhibition of human PANC-03-27 cell growth in a cell viability assay.

MDA-MB-415 = test: cells; format: functional, cell-based; details: Homo sapiens
G-361 = test: cells; format: functional, cell-based; details: Homo sapiens
CP66-MEL = test: cells; format: functional, cell-based; details: Homo sapiens;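 note: growth inhibition of CP66-MEL cells determined in a cell viability assay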
Description: SANGER: Inhibition of human CP66-MEL cell growth in a cell viability assay.

COLO-792 = test: cells; format: functional, cell-based; details: Homo sapiens
Description: SANGER: Inhibition of human COLO-792 cell growth in a cell viability assay.

HuO9 = test: cells; format: functional, cell-based; details: Homo sapiens;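 note: growth inhibition of HuO9 cells, read out with a cell viability assay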
Description: SANGER: Inhibition of human HuO9 cell growth in a cell viability assay.

OPM-2 = test: cells; format: functional, cell-based, Homo sapiens; details: Homo sapiens, OPM-2;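 note: growth of OPM-2 cells measured with a viability assay, IC50 for suppression of proliferation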
Description: SANGER: Inhibition of human OPM-2 cell growth in a cell viability assay.

AGS = test: cells; format: functional, cell-based; details: Homo sapiens;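 note: growth inhibition of AGS cells, determined with a cell viability assay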
Description: SANGER: Inhibition of human AGS cell growth in a cell viability assay.

EHEB = test: cells; format: functional, cell-based; details: Homo sapiens;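 note: growth inhibition of human EHEB cells, read out with a cell viability assay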
Description: SANGER: Inhibition of human EHEB cell growth in a cell viability assay.

SK-LU-1 = test: cells; format: functional, cell-based; details: Homo sapiens;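 note: cell viability assay measuring growth inhibition of human SK-LU-1 cells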
Description: SANGER: Inhibition of human SK-LU-1 cell growth in a cell viability assay.

Measured: IC50

COC(=O)[C@H](CCSC)NC(=O)c1ccc(NC[C@@H](N)CS)cc1-c1ccccc1
> 1.02 µM: MC-CAR | NCI-H345 | DBTRG-05MG | ST486 | COLO-678 | TE-441-T | SAS | AN3-CA | SKG-IIIa | MDA-MB-361 | NCI-H1522 | KYSE-180 | KYSE-410 | COR-L105 | SJRH30 | U-118-MG | NUGC-3 | COLO-680N | TALL-1 | SN12C | COLO-679 | KMS-12-PE | NCI-H2171 | RPMI-7951 | RPMI 8402 | TE-15 | NCI-H1563 | HSC-4 | YAPC | KYSE-450 | SK-MM-2 | BT-20 | KOSC-2 | SiHa | HT-1080 | CP50-MEL-B | OE19 | Hs-578T | MDA-MB-175-VII | NCI-H650 | GMS-10 | CAL-12T | D-336MG | BL-70 | SW756 | HCC1419 | NCI-H2009 | A 172 | 8505C | ESS-1 | PANC-03-27 | MDA-MB-415 | G-361 | CP66-MEL | COLO-792 | HuO9 | OPM-2 | AGS | EHEB | SK-LU-1
